This note sets out measurements from PMC8813987, “Schwann cell endosome CGRP signals elicit periorbital mechanical allodynia in mice” (Nature Communications, 2022).

As a reminder, the IC50 is the concentration that gives 50% inhibition.

This assay concerns the target T1, CLR/RAMP1 (calcitonin receptor-like receptor) (Homo sapiens, UniProt O60894+Q16602).
T1 construct: gene CALCRL; with RAMP1
Kind of assay: inhibition of CGRP-evoked Ca2+ response in primary human Schwann cells (preincubation, then washout). It counts as cell-based.

T1 sequence (Q16602 23-461): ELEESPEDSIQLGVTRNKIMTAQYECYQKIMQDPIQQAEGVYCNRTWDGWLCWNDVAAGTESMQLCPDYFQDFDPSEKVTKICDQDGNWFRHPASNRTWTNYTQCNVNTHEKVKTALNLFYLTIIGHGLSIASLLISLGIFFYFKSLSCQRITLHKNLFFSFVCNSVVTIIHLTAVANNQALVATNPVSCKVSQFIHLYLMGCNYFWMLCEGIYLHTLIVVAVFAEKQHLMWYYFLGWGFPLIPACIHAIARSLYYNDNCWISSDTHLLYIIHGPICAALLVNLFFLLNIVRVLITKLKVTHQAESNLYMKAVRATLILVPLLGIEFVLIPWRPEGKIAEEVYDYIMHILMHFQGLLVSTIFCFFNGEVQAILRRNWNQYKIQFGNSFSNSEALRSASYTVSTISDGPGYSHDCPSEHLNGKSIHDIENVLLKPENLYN
T1 sequence (O60894 27-148): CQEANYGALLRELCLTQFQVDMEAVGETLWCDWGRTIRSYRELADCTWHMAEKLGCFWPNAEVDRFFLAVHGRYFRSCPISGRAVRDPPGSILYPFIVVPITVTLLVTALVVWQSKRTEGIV

Consider `O=C(CN1C(=O)C2(CCCC2)NC[C@H]1c1cc(F)cc(F)c1)Nc1ccc2c(c1)C[C@@]1(C2)C(=O)Nc2ncccc21` [MK-3207], for which the IC50 came to 2900 nM.
